Measured values published in patent US9050301B2, “Pharmaceutical composition for treatment of corneal endothelial wounds containing angiogenin” (Chung-Ang University Industry-Academy Cooperation Foundation, priority 2013, dated 2015).

Assays:
[1] = tested on: rabbit corneal endothelium; assay: Ratio of corneas without opacity and edema (digital camera images) after trans-corneal freezing damage; format: in vivo; settings: angiogenin 200 μg/mL
Procedure: (§1) 30 eyeballs of 15 healthy white New Zealand rabbits weighing about 2.0 kg to about 3.0 kg without external opacification were anesthetized by intramuscular injection with 12.5 mg/kg of tiletamine/zolazepam (Zoletil®, VirbacLab, France) and 12.5 mg/kg of zylazine (Rompun®, BayerKorea, Korea). Afterwards, 0.5% povidone-iodine was used for disinfection of the whole range of experimental sight. Referring to FIG. 1, an 8 mm-diameter stainless steel rod as a probe was immersed in liquid nitrogen for 3 minutes, removed therefrom once the temperature of the liquid nitrogen reached −196° C., and brought into contact to the central cornea for 15 seconds. Then, each of the eyeballs was washed with 10 cc of 0.9% saline solution. In order to prevent the occurrence of corneal infection, the rabbit corneas were given instillation of Levofloxacin (Cravit®, Santen, Japan) three times a day for 3 days after the damage was induced.
(§2) 3 groups consisting of 10 eyeballs given instillation of angiogenin (200 μg/mL), 7 eyeballs given Y-27632 (10 mM) inhibitor of Rho-associated coiled-coil kinase (ROCK) pathway, and 7 eyeballs as a control group given phosphate-buffered solution (PBS) were each subjected to 50 μl of instillation at a time, and more particularly, 6 times a day for the first 2 days, and then, 4 times a day for the following 2 days, starting immediately after inducing freeze-damages to the trans-corneal endothelium. That is, the instillation was performed 20 times in total for 4 days.
Then, the groups were subjected to the evaluation of corneal opacity and corneal edema by using a digital camera (VLUUNV100HD, Samsung, Suwon, Korea) to obtain images taken in a diagonal direction.
Experiments have been carried out to identify effects of angiogenin-induced PI3k-Akt signaling pathway in terms of recovering the corneal transparency after inducing damages to the corneal endothelium. After inducing freeze-damages to the corneal endothelium, 4 eyeballs out of 30 rabbit eyeballs in total were subjected to 50 μl of each of 200 μg/mL of angiogenin and 200 μM of PI3k-Akt pathway inhibitor, LY294002 instillation at a time every 3 minutes, and more particularly, 6 times a day for the first 2 days, and then, 4 times a day for the following one day. That is, the instillation was performed 16 times in total for 3 days.

[2] = tested on: rabbit corneal endothelium; assay: Alizarin red S-staining of corneal endothelium wounded area; format: in vivo; settings: for Corneal endothelium wounded area observed by alizarin red S-staining: 192 hours (8th day) after freeze damage, compared with control group (p=0.050); for Morphology (hexagonality) of endothelial cells around the wounded area: 192 hours, 200× magnification
Procedure: as §1, §2
Two eyeballs out of 30 eyeballs in total were each used as a negative control group of normal corneal endothelium and as a positive control group being subjected to alizarin red S-staining immediately after inducing freeze-damages to the trans-corneal endothelium. An overdose of KCl was administrated into the rest of the eyeballs by intramuscular injection 192 hours (8th day) after inducing freeze-damages to the trans-corneal, and accordingly, these eyeballs were sacrificed. Then, 3 eyeballs were removed for each of the control group, the group given angiogenin instillation, and the group given Y-27632 instillation. Then, the whole cornea was pulled off with respect to the corneal limbal boundary, immersed in 1% alizarin red S-staining solution (Lab Chem, Pittsburgh, USA) for 2 minutes, washed with 0.9% saline solution, and then, wet-mount with the endothelium facing upward. Images thereof were immediately obtained after observation by using an optical microscope, and then, the wounded area of the cornea was measured in pixels for a digital image at 40× magnification by using the Image J software (National Institutes of Health (NIH); http://rsbweb.nih.gov/ij/), and the endothelial cells around the wounded areas were observed and compared in terms of hexagonality at 200× magnification.

[3] = tested on: human corneal endothelial cells; assay: In vitro scratch wound healing of cultured human corneal endothelial cells; format: cell-based; settings: for Wound healing index compared with the control group: 6 and 24 hours, angiogenin 5 μg/ml, Y-27632 10 μM
Procedure: A corneal endothelial tissue segment obtained from remaining corneal portions other than the central 8 mm corneal portion in cadaveric cornea donated for transplantation and a corneal endothelial tissue segment of a normal rabbit were cultured. Then, each of the corneal tissues was divided into 6 pieces and washed by shaking 6 times in a petri dish to which 7 ml of 5% penicillin/streptomycin (P/S) was added. Then, the washed tissues were each transferred to a 6-well dish such that the endothelial layer was facing down, and the tissues were semi-dried until the dishes were slightly drained. […]
Experiments have been carried to identify angiogenin effects on migration and proliferation of the corneal endothelial cells. […] At every 0 hour, 12 hours, 24 hours, and 48 hours, digital images of the remaining wounded areas were obtained at 40× magnification of the optical microscope, and measured in pixels by using the Image J software. […] At every 6 hours and 24 hours, the wounded areas were measured by using the Image J software. The ratio of initial wounded area versus recovered area was defined as wound healing index, which is calculated as shown below. […]
Experiments have been carried to identify optimal concentration of angiogenin to improve in vitro migration and proliferation improvement of the cultured human corneal endothelial cells. […] At every 0 hour, 12 hours, 24 hours, and 48 hours, the wounded areas were measured by using the Image J software. […]

[4] = 48 h after freeze damage, Y-27632 10 mM instillation
[5] = 72 h after freeze damage, Y-27632 10 mM, LY294002 200 μM instillation
[6] = 144 h after freeze damage, Y-27632 10 mM instillation
[7] = 192 h after freeze damage, Y-27632 10 mM instillation

C[C@@H](N)[C@H]1CC[C@H](C(=O)Nc2ccncc2)CC1 [Y-27632, reference compound]
Ratio of number of cornea without opacity and edema (digital camera images) [1, 4]: 0% | Ratio of number of cornea without opacity and edema (digital camera images) [1, 5]: 14.3% | Ratio of number of cornea without opacity and edema (digital camera images) [1, 6]: 14.3% | Ratio of number of cornea without opacity and edema (digital camera images) [1, 7]: 14.3% | Corneal endothelium wounded area observed by alizarin red S-staining [2]: smaller wounded areas than those of the control group | Morphology (hexagonality) of endothelial cells around the wounded area [2]: significant modification of cell morpology | Wound healing index compared with the control group [3]: high wound healing index

Angiogenin: 14.4-kDa single chain protein of 123 amino acids, secreted protein capable of inducing angiogenesis
Ratio of number of cornea without opacity and edema (digital camera images) [1, 4]: 10% | Ratio of number of cornea without opacity and edema (digital camera images) [1, 5]: 20% | Ratio of number of cornea without opacity and edema (digital camera images) [1, 6]: 37.5% | Ratio of number of cornea without opacity and edema (digital camera images) [1, 7]: 50% | Corneal endothelium wounded area observed by alizarin red S-staining [2]: smallest the corneal endothelium wounded area | Morphology (hexagonality) of endothelial cells around the wounded area [2]: corneal endothelial cells in even hexagonality | Angiogenin concentration giving the highest wound healing index ([3]; 1, 2, 5 and 10 μg/ml tested, 0, 12, 24, 48 hours): 5 µg/mL | Wound healing index compared with the control group [3]: high wound healing index
